Results from patent US20160367831A1, “IMPLANTABLE MEDICAL DEVICE, SYSTEM AND METHOD FOR INDUCING THROMBOSIS IN AN ARTERY OF A LIVING ANIMAL” (Chang Gung Memorial Hospital, Linkou, priority 2015, published 2016).

What was measured:
Assay type in all cases: in vivo, spontaneously hypertensive rat (SHR)
[1] = tested on: common carotid artery (CCA); experiment: Histological (H&E) and immunohistochemical (PECAM-1) staining of the CCAs; settings: for thrombus formation, histologic examination (H&E): 3 days
Procedure: The animal of Example 3 and Comparative Example 2 was anesthetized and sacrificed. Both CCAs of Example 3 and Comparative Example 2 were removed and washed in phosphate buffer solution, dehydrated on dry ice, and stored at −80° C. for 24 hours. Before sectioning, all CCAs were embedded in Optimal Cutting Temperature Compound (Tissue Tek, 4583) (Sakura Finetek USA, Inc., Torrance, Calif., USA) and stored at −80° C. for another 12 hours. Cross-sections of the CCAs of Example 3 and Comparative Example 2 (10 μm in thickness) were consecutively cut on a microtome-cryostat. Then, these sections were subjected to hematoxylin and eosin (H&E) staining for evaluation of thrombus formation. For immunohistochemical staining, the slides were treated with cold acetone for 10 minutes and then with methanol with 0.3% H2O2 for 10 minutes. After blocking endogenous peroxidase using a peroxidase blocking reagent (DAKO, Carpinteria, Calif., USA), the primary antibody (anti-PECAM-1 [anti-CD31]) (AbD Serotec, Dusseldorf, Germany) was applied at a dilution of 1:500 overnight at 4° C., followed by a universal immuno-peroxidase polymer (Histofine) (Cosmo Bio, Carlsbad, Calif., USA) for 1 hour at room temperature. Development of color was achieved by exposure for 2 minutes to the DAB chromogen system (DAKO). Endothelium cells were considered positive for PECAM-1 in the presence of intense brown staining.

[2] = tested on: common carotid artery (CCA); experiment: Magnetic Resonance Angiography (MRA) examination of the CCAs; settings: Example 3: intermittent 4.5 mW/cm2 LED
Procedure: Serial in vivo MRA examination was performed on the CCAs of Example 3 and Comparative Example 2, and the typical MR imaging (MRI) experimental scheme of the time sequence is shown in FIG. 9. Images were acquired using a 7T MRI system (ClinScan 70/30 USR) (Bruker, Rheinstetten, Germany) with a linear body coil. The rat was anaesthetized with 1.5% isoflurane and connected to a respiratory rate monitor. The flow of anesthetic gas was constantly regulated to maintain the breathing rate at approximately 40/min. MRA of the CCAs was performed using the time-of-flight (TOF) method without a contrast agent. Transverse slices (panels (a) to (d) of FIG. 9) were acquired with a fast, low-angle shot (FLASH) using the following parameters: TR=22 ms, TE=4.87 ms, pulse angle=90 degrees, field of view (FQV)=55×42 mm2, and matrix size=58×256. T2-weighted images (panels (e) to (f) of FIG. 9) were acquired using a turbo spin-echo sequence and using the following parameters: TR=2900 ms, TE=37 ms, turbo factor=7, FOV=45×45 mm2, slice thickness=1 mm, and matrix size=240×320. The imaged area covered the CCAs, the carotid bifurcation, the internal carotid artery, and the external carotid artery. Contiguous cross-sectional images were obtained perpendicular to the long axis of the neck. Thrombus formation in the CCAs of Example 3 and Comparative Example 2 was observed by MRA and coronal sequential MR images. […] Because the blood flow of the CCA of Example 3 was disrupted by thrombus, MRA of the CCA of Example 3 was not as bright as the MRA of the CCA of Comparative Example 2 (panel (b) of FIG. 9).

[3] = tested on: common carotid artery (CCA); experiment: LED photochemical thrombosis induction in the common carotid artery, ultrasound imaging; settings: for thrombosis formation in the CCA (ultrasound): no irradiation
Text: A system for inducing thrombosis was provided, including an implantable medical device and an external power controller. The external power controller includes a Class-E amplifier and a resonant transmitting coil. The implantable medical device includes a resonant receiving coil (i.e., the wireless power receiver) and an LED assembly (i.e., the irradiation module) including a surface-mount device type LED (i.e., the light-emitting element) and a LED lens (i.e., the lens element) disposed on the LED. The LED assembly and the resonant receiving coil were hermetically packaged with polydimethylsiloxane (PDMS) (i.e., the encapsulator). An open ditch of approximately 2 mm in width and depth was made on the LED lens, and four cuts (i.e., the engaging groove) were formed on the PDMS. A male spontaneously hypertensive rat (SHR) (i.e., the living animal) was anesthetized with 3% isoflurane in a mixture of 30% oxygen and 70% nitrogen. After the administration of anesthesia, the rat was placed in a supine position. A 1 cm incision was made in the left inguinal area and the femoral vein was carefully dissected. A polyethylene tube to be used for rose bengal injection was inserted in the femoral vein via the dissected incision and secured using 3-0 nylon suture. […] Blunt dissection of the left common carotid artery (CCA) was performed. The CCA was placed into the ditch of the LED lens, and the implantable medical device was secured onto the CCA using 3-0 nylon suture (i.e., the securing strap) to engage the cuts on the PDMS. After the implantation procedure, the surgical wound was sutured and the rat was placed in a prone position near the transmitting coil of the external power controller. After isoflurane was decreased to 1%, rose bengal (Sigma-Aldrich, St. Louis, Mo., USA) was administrated intravenously at a dose of 60 mg/kg. Thereafter, the external power controller was powered to wirelessly drive the LED of the implantable medical device via the resonant receiving coil to irradiate the CCA at a wavelength of 540 nm. […] The LED light power was measured using a Nova handheld laser power meter (Ophir Optronics Solutions, Ltd., Israel). After irradiation, the implantable medical device was removed and the wound was sutured using 3-0 nylon. Ultrasound images of the CCA prior to irradiation (Pre OP), immediately after irradiation (Post OP), 3 days after irradiation (Post OP 3d), and 7 days after irradiation (Post OP 7d) were captured and are shown in FIG. 6.

[4] = Example 3: intermittent 4.5 mW/cm2 LED

SMILES: O=C([O-])c1c(Cl)c(Cl)c(Cl)c(Cl)c1-c1c2cc(I)c(=O)c(I)c-2oc2c(I)c([O-])c(I)cc12.[Na+].[Na+] [rose bengal]
- endothelial cells, PECAM-1 staining ([1]; Comparative Example 2: non-irradiated CCA of the same rat): intact
- endothelial cells, PECAM-1 staining [1, 4]: injured and discontinued
- thrombus formation, histologic examination (H&E) [1, 4]: formation of thrombus packed with red blood cells, leucocytes, and platelets
- thrombus formation, histologic examination (H&E) ([1]; non-irradiated CCA of the same rat): no thrombus formation was observed
- thrombus in the CCA (MRA / T2-weighted MRI) ([2]; immediately after irradiation): the thrombus appeared on the vessel wall
- thrombus in the CCA (MRA / T2-weighted MRI) ([2]; seven days after irradiation): totally occluded
- thrombus in the CCA (MRA / T2-weighted MRI) ([2]; three days after irradiation): enlarged and significantly disrupted blood flow
- thrombosis formation in the CCA (ultrasound) ([3]; Comparative Example 1: 60 mg/kg i.v., up to 7 days): thrombosis did not form
- thrombosis formation in the CCA (ultrasound) ([3]; Comparative Example 2: right CCA of the Example 3 rat, up to 7 days): thrombosis was not formed
- thrombosis / occlusion of the CCA (ultrasound) ([3]; Comparative Example 5: intermittent LED 4.0 mW/cm2 (2 h, off 30 min, 2 h), up to 1 day): disappeared within one day after irradiation
- thrombosis / occlusion of the CCA (ultrasound) ([3]; Comparative Example 6: intermittent LED 5.0 mW/cm2 (2 h, off 30 min, 2 h), up to 1 day): the artery became totally occluded one day after irradiation
- thrombosis / occlusion of the CCA (ultrasound) ([3]; Example 1: 60 mg/kg i.v., LED 540 nm, 6 mW/cm2 continuously for 4 hours, up to 7 days): totally occluded right after irradiation and total occlusion was maintained for 7 days
- thrombosis / occlusion of the CCA (ultrasound) ([3]; Example 2: 60 mg/kg i.v., LED 5 mW/cm2 continuously for 4 hours, up to 7 days): the formed thrombus gradually diminished 3 days after irradiation (Post OP 3d) and totally disappeared at 7 days after irradiation
- thrombosis / occlusion of the CCA (ultrasound) ([3]; Example 3: 60 mg/kg i.v., LED 4.5 mW/cm2 2 hours, off 30 minutes, 2 hours, up to 7 days): the CCA was totally occluded at 7 days after irradiation
